In patent US9861616B2, “Methods for treating respiratory diseases and formulations therefor” (priority 2013, dated 2018):
≈ marks a conversion by molar mass, not a printed value. Read-outs that look alike come from different tables or passages of the source.

Columns and labels:
Format in all cases: cell-based
P. aeruginosa (PA) = assay: MIC by microdilution, 36 clinical and laboratory strains with known efflux phenotype
Protocol: (§1) MICs of 36 clinical and laboratory strains of PA with known efflux phenotype are measured by microdilution in cation-adjusted Muller-Hinton broth (CA-MHB) or in RPMI medium (commonly used in eukaryotic cell culture). Phe-Arg-β-naphthylamide (PaβN, 50 mg/L) and EGTA 5 mM are used to inhibit efflux pumps and alter OM integrity, respectively. P. aeruginosa strain ATCC PAO1 is used as reference. PA12 is a clinical strain overexpressing the 4 main efflux systems (MexAB, MexCD, MexEF, MexXY), PA403 is a laboratory strain deleted in the genes coding for the 4 efflux systems. A series of reference strains or of clinical isolates for which the expression of genes coding for efflux pumps is known is also used for MICs determinations. MICs are measured by microdilution in MH broth or in RPMI medium (used for eukaryotic cells culture) supplemented with 10% of fetal calf serum, or in MH broth supplemented by increasing amounts of serum. EGTA (5 mM) was used as a chelating agent (disrupting outer membrane integrity) and PaβN (50 mg/L) as an unspecific efflux inhibitor.

P. aeruginosa PA12 = assay: MIC by microdilution with PaβN or EGTA, clinical isolate overexpressing efflux pumps; settings: Pseudomonas aeruginosa
Protocol: as §1

P. aeruginosa PA403 = assay: MIC by microdilution with PaβN or EGTA, efflux-deleted laboratory strain; settings: Pseudomonas aeruginosa, read-out: MIC
Protocol: as §1, with “The compounds described herein are poor substrates of efflux pumps expressed in P. aeruginosa (PA). MICs of” for “MICs of”

## CC[C@H]1OC(=O)[C@H](C)[C@@H](O[C@H]2C[C@@](C)(OC)[C@@H](O)[C@H](C)O2)[C@H](C)[C@@H](O[C@@H]2O[C@H](C)C[C@H](N(C)C)[C@H]2O)[C@](C)(OC)C[C@@H](C)C(=O)[C@H](C)[C@@H](O)[C@]1(C)O [CLR, clarithromycin]
P. aeruginosa (PA); strain 1, efflux AB+, MHB
  MIC: 512 µg/mL (≈ 685 µM)
P. aeruginosa (PA); strain 1, efflux AB+, RPMI
  MIC: 32 µg/mL (≈ 42.8 µM)
P. aeruginosa (PA); strain 2, efflux CD+, MHB
  MIC: 512 µg/mL (≈ 685 µM)
P. aeruginosa (PA); strain 2, efflux CD+, RPMI
  MIC: 128 µg/mL (≈ 171 µM)
P. aeruginosa (PA); strain 3, efflux EF+, RPMI
  MIC: 16 µg/mL (≈ 21.4 µM)
P. aeruginosa (PA); strain 4, efflux XY+, MHB
  MIC: 512 µg/mL (≈ 685 µM)
P. aeruginosa (PA); strain 4, efflux XY+, RPMI
  MIC: 32 µg/mL (≈ 42.8 µM)
P. aeruginosa (PA); strain 11, efflux AB + CD+, MHB
  MIC: 512 µg/mL
P. aeruginosa (PA); strain 11, efflux AB + CD+, RPMI
  MIC: 16 µg/mL
P. aeruginosa (PA); strain 12, efflux AB + CD + EF + XY+, MHB
  MIC: 512 µg/mL
P. aeruginosa (PA); strain 12, efflux AB + CD + EF + XY+, RPMI
  MIC: 16 µg/mL
P. aeruginosa (PA); strain 16, efflux AB + XY+, MHB
  MIC: 512 µg/mL
P. aeruginosa (PA); strain 16, efflux AB + XY+, RPMI
  MIC: 64 µg/mL
P. aeruginosa (PA); strain 21, efflux AB+, MHB
  MIC: 512 µg/mL (≈ 685 µM)
P. aeruginosa (PA); strain 21, efflux AB+, RPMI
  MIC: 64 µg/mL (≈ 85.6 µM)
P. aeruginosa (PA); strain 22, efflux XY+, MHB
  MIC: 512 µg/mL (≈ 685 µM)
P. aeruginosa (PA); strain 22, efflux XY+, RPMI
  MIC: 32 µg/mL (≈ 42.8 µM)
P. aeruginosa (PA); strain 40, efflux EF+, RPMI
  MIC: 16 µg/mL (≈ 21.4 µM)
P. aeruginosa (PA); strain 41, efflux CD+, MHB
  MIC: 512 µg/mL (≈ 685 µM)
P. aeruginosa (PA); strain 41, efflux CD+, RPMI
  MIC: 64 µg/mL (≈ 85.6 µM)
P. aeruginosa (PA); strain 48, efflux CD + EF + XY+, MHB
  MIC: 512 µg/mL
P. aeruginosa (PA); strain 48, efflux CD + EF + XY+, RPMI
  MIC: 64 µg/mL
P. aeruginosa (PA); strain 49, efflux CD + EF + XY+, MHB
  MIC: 512 µg/mL
P. aeruginosa (PA); strain 49, efflux CD + EF + XY+, RPMI
  MIC: 32 µg/mL
P. aeruginosa (PA); strain 63, efflux AB + EF + XY+, MHB
  MIC: 512 µg/mL
P. aeruginosa (PA); strain 63, efflux AB + EF + XY+, RPMI
  MIC: 32 µg/mL
P. aeruginosa (PA); strain 68, efflux AB + XY+, MHB
  MIC: 512 µg/mL
P. aeruginosa (PA); strain 68, efflux AB + XY+, RPMI
  MIC: 64 µg/mL
P. aeruginosa (PA); strain 133, efflux EF + XY+, MHB
  MIC: 512 µg/mL
P. aeruginosa (PA); strain 133, efflux EF + XY+, RPMI
  MIC: 64 µg/mL
P. aeruginosa (PA); strain 156, efflux EF + XY+, MHB
  MIC: 512 µg/mL
P. aeruginosa (PA); strain 156, efflux EF + XY+, RPMI
  MIC: 32 µg/mL
P. aeruginosa (PA); strain 168B, efflux CD + XY+, MHB
  MIC: 512 µg/mL
P. aeruginosa (PA); strain 207, efflux AB + EF + XY+, MHB
  MIC: 512 µg/mL
P. aeruginosa (PA); strain 207, efflux AB + EF + XY+, RPMI
  MIC: 64 µg/mL
P. aeruginosa (PA); strain 266B, efflux AB + CD+, MHB
  MIC: 512 µg/mL
P. aeruginosa (PA); strain 266B, efflux AB + CD+, RPMI
  MIC: 64 µg/mL
P. aeruginosa (PA); strain 333A, efflux AB + EF+, MHB
  MIC: 512 µg/mL
P. aeruginosa (PA); strain 333A, efflux AB + EF+, RPMI
  MIC: 64 µg/mL
P. aeruginosa (PA); strain 335, efflux AB + EF+, MHB
  MIC: 512 µg/mL
P. aeruginosa (PA); strain 335, efflux AB + EF+, RPMI
  MIC: 64 µg/mL
P. aeruginosa (PA); strain 391, efflux EF−, RPMI
  MIC: 16 µg/mL (≈ 21.4 µM)
P. aeruginosa (PA); strain 392, efflux CD−, RPMI
  MIC: 16 µg/mL (≈ 21.4 µM)
P. aeruginosa (PA); strain 394, efflux XY−, MHB
  MIC: 512 µg/mL (≈ 685 µM)
P. aeruginosa (PA); strain 394, efflux XY−, RPMI
  MIC: 32 µg/mL (≈ 42.8 µM)
P. aeruginosa (PA); strain 395, efflux HI−, RPMI
  MIC: 32 µg/mL (≈ 42.8 µM)
P. aeruginosa (PA); strain 396, ompH−, MHB
  MIC: 64 µg/mL (≈ 85.6 µM)
P. aeruginosa (PA); strain 396, ompH−, RPMI
  MIC: 16 µg/mL (≈ 21.4 µM)
P. aeruginosa (PA); strain 397, efflux AB−, MHB
  MIC: 16 µg/mL (≈ 21.4 µM)
P. aeruginosa (PA); strain 397, efflux AB−, RPMI
  MIC: 2 µg/mL (≈ 2.67 µM)
P. aeruginosa (PA); strain 398, efflux CD−, MHB
  MIC: 32 µg/mL (≈ 42.8 µM)
P. aeruginosa (PA); strain 398, efflux CD−, RPMI
  MIC: 4 µg/mL (≈ 5.35 µM)
P. aeruginosa (PA); strain 399, efflux AB − EF−, MHB
  MIC: 16 µg/mL (≈ 21.4 µM)
P. aeruginosa (PA); strain 399, efflux AB − EF−, RPMI
  MIC: 4 µg/mL (≈ 5.35 µM)
P. aeruginosa (PA); strain 400, efflux XY−, MHB
  MIC: 16 µg/mL (≈ 21.4 µM)
P. aeruginosa (PA); strain 400, efflux XY−, RPMI
  MIC: 4 µg/mL (≈ 5.35 µM)
P. aeruginosa (PA); strain 401, ompH−, MHB
  MIC: 8 µg/mL (≈ 10.7 µM)
P. aeruginosa (PA); strain 401, ompH−, RPMI
  MIC: 2 µg/mL (≈ 2.67 µM)
P. aeruginosa (PA); strain 403, efflux AB − CD − EF − XY−, MHB
  MIC: 16 µg/mL (≈ 21.4 µM)
P. aeruginosa (PA); strain 403, efflux AB − CD − EF − XY−, RPMI
  MIC: 4 µg/mL (≈ 5.35 µM)
P. aeruginosa (PA); strain 405, efflux AB − CD − EF − XY−, MHB
  MIC: 8 µg/mL (≈ 10.7 µM)
P. aeruginosa (PA); strain 405, efflux AB − CD − EF − XY−, RPMI
  MIC: 4 µg/mL (≈ 5.35 µM)
P. aeruginosa (PA); strain 434, efflux AB + CD + XY+, MHB
  MIC: 512 µg/mL
P. aeruginosa (PA); strain 434, efflux AB + CD + XY+, RPMI
  MIC: 128 µg/mL
P. aeruginosa (PA); strain PAO1, REFERENCE, MHB
  MIC: 512 µg/mL (≈ 685 µM)
P. aeruginosa (PA); strain PAO1, REFERENCE, RPMI
  MIC: 32 µg/mL (≈ 42.8 µM)
P. aeruginosa PA12; PA12, PA12, CA-MHB, PaβN 50 mg/L
  MIC: 16 µg/mL (≈ 21.4 µM)
P. aeruginosa PA12; PA12, PA12, CA-MHB, control conditions (CT)
  MIC: 512 µg/mL (≈ 685 µM)
P. aeruginosa PA12; PA12, PA12, RPMI, EGTA 5 mM
  MIC: 2 µg/mL (≈ 2.67 µM)
P. aeruginosa PA12; PA12, PA12, RPMI, PaβN 50 mg/L
  MIC: 16 µg/mL (≈ 21.4 µM)
P. aeruginosa PA12; PA12, PA12, RPMI, control conditions (CT)
  MIC: 16 µg/mL (≈ 21.4 µM)
P. aeruginosa PA403; PA403, P403, CA-MHB, EGTA 5 mM
  MIC: 32 µg/mL (≈ 42.8 µM)
P. aeruginosa PA403; PA403, P403, CA-MHB, control conditions (CT)
  MIC: 16 µg/mL (≈ 21.4 µM)
P. aeruginosa PA403; PA403, P403, RPMI, EGTA 5 mM
  MIC: 0.5 µg/mL (≈ 0.668 µM)
P. aeruginosa PA403; PA403, P403, RPMI, PaβN 50 mg/L
  MIC: 4 µg/mL (≈ 5.35 µM)
P. aeruginosa PA403; PA403, P403, RPMI, control conditions (CT)
  MIC: 4 µg/mL (≈ 5.35 µM)
